Test results from patent USRE37781E1, “Substituted cyclic carbonyls and derivatives thereof useful as retroviral protease inhibitors” (DuPont Pharmaceuticals Company, priority 1991, dated 2002).
Values after ≈ are worked out from the molar mass of the structure shown. Like-named read-outs stand apart in the source and are kept apart here.

Legend:
[1] = molecular target: T1, HIV protease (Human immunodeficiency virus type 1 group M subtype B, UniProt P04585); assay: biochemical; parameters: species or system HIV-1
T1 construct: plasmid containing HIV protease under the control of an inducible T7 promoter; made in house; host or cells: E. coli (inclusion bodies, T7 promoter)
Protocol: HIV Protease Inhibition Assay—Spectroscopic Method
Inclusion bodies were solubilized in 8M urea, 50 mM tris pH 8.0. Protease activity was recovered by dilution 20-fold into buffer containing 50 mM sodium acetate pH 5.5, 1 mM EDTA, 10% glycerol and 5% ethylene glycol. Enzyme was used at a final concentration of 1.0-10 ug/ml.
Stock solutions of 10 mM were prepared in DMSO.
All further dilutions were done in DMSO.

[2] = system: HIV-1 (RF) in MT-2 cells; assay: microbe, parasite or virus in culture; type: cell-based; conditions: read-out: IC90
How it was run: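 Read-out: gag and pol viral RNA captured by 5′-biotinylated oligonucleotides on streptavidin-coated wells, detected with alkaline phosphatase-linked reporter oligonucleotides, calibrated against BH10 in vitro transcripts. Virus stocks (RF, MN, IIIB) come from H9 cultures; MT-2 host cells kept in RPMI 1640, 5% FCS.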

[3] = Human immunodeficiency virus 1, MT2, Table 1c
[4] = second table headed Table 2A, read-out: Ki
[5] = Human immunodeficiency virus 1, MT2, Table 2A
[6] = Human immunodeficiency virus 1, MT2, second table headed Table 2A

SMILES	Ki ([1]; Ki) [nM]	IC90 [2, 3] [µg/mL]	melting point [°C]	Ki ([1]; Table 1a, read-out: Ki) [nM]	Ki ([1]; Table 2A, read-out: Ki) [nM]	Ki [1, 4] [nM]	IC90 [2, 5] [µg/mL]	IC90 [2, 6] [µg/mL]
N#CN=C1N(Cc2cccc(O)c2)C(Cc2ccccc2)C(O)C(O)C(Cc2ccccc2)N1Cc1cccc(O)c1 (centres unmarked) [Example 1CD]	< 10	< 10	124					
CCCCCCCN1C(=O)N(CCCCCCC)C(Cc2ccccc2)C(O)C(O)C1Cc1ccccc1 (centres unmarked) [Example 1AB]			100 to 101	10 to 1000				
N#CN=C1N(Cc2ccc(CO)cc2)C(Cc2ccccc2)C(O)C(O)C(Cc2ccccc2)N1Cc1ccc(CO)cc1 (centres unmarked) [Example 1CN]	10 to 1000	< 10	100.9					
O=C1N(CCCc2ccccc2)C(Cc2ccccc2)C(O)C(O)C(Cc2ccccc2)N1CCCc1ccccc1 (centres unmarked) [Example 2B]			120.7		10 to 1000	10 to 1000	< 10	< 10
N#CN=C1N(Cc2cccc(C=NO)c2)C(Cc2ccccc2)C(O)C(O)C(Cc2ccccc2)N1Cc1cccc(C=NO)c1 (centres unmarked) [Example 1CQ]	< 10	< 10	121.2					
C=CCN1C(=NC#N)N(CC=C)C(Cc2ccccc2)C(O)C(O)C1Cc1ccccc1 (centres unmarked) [Example 1BW]	10 to 1000	10 to 100 (≈ 23.2 to 232 µM)	70.2					
C=C(C)CN1C(=O)N(CC(=C)C)C(Cc2ccccc2)C(O)C(O)C1Cc1ccccc1 (centres unmarked) [Example 1AJ]			205 to 207	< 10				
CN1C(=O)N(C)C(Cc2ccccc2)C(O)C(O)C1Cc1ccccc1 (centres unmarked) [Example 1W]	> 1000		170 to 174					
C#CCN1C(=O)N(CC#C)C(Cc2ccccc2)C(O)C(O)C1Cc1ccccc1 (centres unmarked) [Example 1AP]			198 to 200	10 to 1000				
CC(C)CCN1C(=NC#N)N(CCC(C)C)C(Cc2ccccc2)C(O)C(O)C1Cc1ccccc1 (centres unmarked) [Example 1CM]	10 to 1000	< 10	76.1					
O=C1N(Cc2ccc(OC(F)(F)F)cc2)C(Cc2ccccc2)C(O)C(O)C(Cc2ccccc2)N1Cc1ccc(OC(F)(F)F)cc1 (centres unmarked) [Example 2L]			136.8		10 to 1000	10 to 1000	< 10	< 10
CC(C)CCCCN1C(=O)N(CCCCC(C)C)C(Cc2ccccc2)C(O)C(O)C1Cc1ccccc1 (centres unmarked) [Example 1AN]	10 to 1000		105 to 107					
C=CCN1C(=O)N(Cc2ccccc2)C(Cc2ccccc2)C(O)C(O)C1Cc1ccccc1 (centres unmarked) [Example 2G]			226.5		< 10	< 10	< 10	< 10
N#CN=C1N(Cc2cccc(OCc3ccccc3)c2)C(Cc2ccccc2)C(O)C(O)C(Cc2ccccc2)N1Cc1cccc(OCc2ccccc2)c1 (centres unmarked) [Example 1CA]	10 to 1000	> 100	75.2					
CC(C)=CCN1C(=NC#N)N(CC=C(C)C)C(Cc2ccccc2)C(O)C(O)C1Cc1ccccc1 (centres unmarked) [Example 1CI]	10 to 1000	< 10	72.9					
N#CN=C1N(Cc2cccc(N)c2)C(Cc2ccccc2)C(O)C(O)C(Cc2ccccc2)N1Cc1cccc(N)c1 (centres unmarked) [Example 1CF]	< 10	< 10	114.4					
N#CN=C1N(Cc2cccc(CO)c2)C(Cc2ccccc2)C(O)C(O)C(Cc2ccccc2)N1Cc1cccc(CO)c1 (centres unmarked) [Example 1CO]	< 10	< 10	193.8					
O=C1N(Cc2cccc(OC(F)(F)F)c2)C(Cc2ccccc2)C(O)C(O)C(Cc2ccccc2)N1Cc1cccc(OC(F)(F)F)c1 (centres unmarked) [Example 2J]			128.3		10 to 1000	10 to 1000	< 10	< 10
CC(C)CCCCCN1C(=O)N(CCCCCC(C)C)C(Cc2ccccc2)C(O)C(O)C1Cc1ccccc1 (centres unmarked) [Example 1AL]	10 to 1000		144 to 145					
N#CN=C1N(CC2CCC2)C(Cc2ccccc2)C(O)C(O)C(Cc2ccccc2)N1CC1CCC1 (centres unmarked) [Example 1CK]	< 10	< 10	235.5					
CCCN1C(=NC#N)N(CCC)C(Cc2ccccc2)C(O)C(O)C1Cc1ccccc1 (centres unmarked) [Example 1CL]	10 to 1000	< 10	216.6					
N#CN=C1N(CC2CC2)[C@H](Cc2ccccc2)[C@H](O)[C@@H](O)[C@@H](Cc2ccccc2)N1CC1CC1 [Example 1BS]	10 to 1000	< 10	211.2					
CCCCN1C(=NC#N)N(CCCC)C(Cc2ccccc2)C(O)C(O)C1Cc1ccccc1 (centres unmarked) [Example 1BX]	< 10	< 10	58.3					
